The first assay deals with T1, BRD4 bromodomain 1 (BD1) (Homo sapiens, UniProt O60885).
T1 construct: Selectivity against BRD4 bromodomain 1 (BD1), measured by HTRF; His; purchased Cayman 11720
In words: BRD4 (BD1)-H4 tetra-acetylated HTRF histone-binding assay. The following applies: Table 1. The procedure:
(§1) Protein Production. Double stranded DNA fragments encoding the protein sequence of ENL YEATS(1-148) were synthesized (IDT DNA) for assembly-based cloning into a modified expression vector backbone derived from pET21a (Novagen). The protein was fused to a StrepII-SUMO and 6×His tag on the amino and carboxy terminus, respectively. Transformed BL21(DE3) cells (New England Biolabs) were grown at 37° C. in 2×YT growth medium to an OD600 of 0.6. Protein expression was induced at 25° C. with the addition of isopropyl-β-D-thiogalactopyranoside (IPTG) to a final concentration of 0.4 mM. The culture was harvested by centrifugation following a 20-hour incubation and subsequently purified by immobilized metal affinity chromatography. Cells were resuspended 50 mM Tris-HCl pH 8.0, 300 mM NaCl, 10% glycerol, 10 mM imidazole, 1 mM DTT containing Complete EDTA-free protease inhibitor (Roche) and lysed by two passes through a MicroFluidizer at 10,000 psi. The lysate was clarified by centrifugation at 16,000 rpm for 30 minutes at 4° C. The supernatant was passed over NiNTA agarose (QIAGEN) and the protein was eluted in 50 mM Tris-HCl pH 8.0, 300 mM NaCl, 10% glycerol, 250 mM imidazole, 1 mM DTT. Fractions containing the ENL YEATS(1-148) fusion protein were buffer exchanged into 100 mM Tris-HCl pH 8.0, 150 mM NaCl, 1 mM EDTA, 1 mM DTT using PD10 desalting columns (GE Life Sciences). Ulp1 protease was added to cleave the StrepII-SUMO fusion and the reaction mixture was incubated overnight at 4° C. The cleavage reaction mixture was loaded onto a StrepTrap column (GE Life Sciences) and ENL YEATS(1-148) was recovered in the flow through. BRD4 BD1 was purchased from Cayman (Cat. No. 11720).
(§2) Homogenous time-resolved FRET (HTRF) histone-binding assays. Both HTRF assays were performed by combining recombinant protein and synthetic histone peptide in assay buffer (25 mM HEPES pH 7, 20 mM NaCl, 0.2% Pluronic F-127, and 0.05% BSA) with 1 nM LanthaScreen Eu-anti-His Tag antibody (ThermoFisher, Cat. No, PV5597) and 8.9 nM SureLight allophycocyanin-streptavidin (Perkin Elmer, APC-SA, Cat. No. CR130-100). ENL YEATS was used at 5 nM and BRD4 BD1 was used at 10 nM. ENL assays were performed with H3(13-32)K27cr (13.3 and 100 nM, respectively), custom synthesized at ABclonal (N-terminal biotin, C-terminal amide); BRD4 BD1 assay was performed with 13.3 nM tetra-acetylated H4 (BioVision, Cat. No. 7144-01). Once all reagents were combined (with or without peptide), 10 μL was dispensed per well into black 384-well low-volume plates (Corning, Cat. No. 3821) and drug was added by pin tool transfer (Biomek FX). Assays were incubated for 2 or more hours before measurement of HTRF signal on a PHERAstar plate reader (BMG Labtech; simultaneous dual emission; excitation=337 nm, emission 1=665 nm, emission 2=620 nm). HTRF signal (ratio of emission 1 to emission 2) from vehicle-treated wells (maximum signal) and no-peptide-control wells (minimum signal) were used to calculate percent inhibition for drug-treated wells.
(In general: Time-resolved FRET reads energy transfer from a long-lived donor to a nearby acceptor.)
`CC(C)NC(=O)c1ccc2nc(-c3cccc(NS(=O)(=O)NCCc4c[nH]cn4)c3)cn2c1` [Compound 46] showed an IC50 greater than 50 µM.

The assay is the same for the next values; noted with them: Table 2.
Regarding `CC(C)NC(=O)c1ccc2nc(-c3cccc(NS(=O)(=O)NCCc4c[nH]cn4)c3)cn2c1` [Compound 46], the IC50 was greater than 50 µM.

In another assay the target is T2, ENL YEATS domain (association with H3K27cr) (Homo sapiens, UniProt Q03111).
T2 sequence (Q03111 1-148): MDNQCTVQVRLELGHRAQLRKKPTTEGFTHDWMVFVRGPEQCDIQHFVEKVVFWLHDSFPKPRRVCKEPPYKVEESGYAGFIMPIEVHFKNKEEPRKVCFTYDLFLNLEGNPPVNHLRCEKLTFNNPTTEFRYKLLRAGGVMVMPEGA
In words: biochemical. The following applies: ENL (YEATS)-H3K27cr HTRF (IC50, μM), Table 1. On the procedure:
as §1, §2
As to `CC(C)NC(=O)c1ccc2nc(-c3cccc(NS(=O)(=O)NCCc4c[nH]cn4)c3)cn2c1` [Compound 46], 0.12 µM corresponded to half-maximal inhibition (IC50).
On the same count and under the same terms, to `O=C(NC1(CO)CCC1)c1ccc2nc(-c3ccccc3)cn2c1` [Compound 72] belongs greater than 50 µM.
On the same count and under the same terms, in the case of `CC1(NC(=O)c2ccc3nc(-c4ccccc4)cn3c2)CCC1` [Compound 73] it was greater than 50 µM; in that of `O=C(NC1CC(F)(F)C1)c1ccc2nc(-c3ccccc3)cn2c1` [Compound 75], greater than 50 µM.
As to `O=C(NC1Cc2ccccc2C1)c1ccc2nc(-c3ccccc3)cn2c1` [Compound 77], the IC50 is greater than 50 µM.
Consider `O=C(N[C@H]1CCc2ccccc21)c1ccc2nc(-c3ccccc3)cn2c1` [Compound 79], for which the IC50 was greater than 50 µM.
Turning to `O=C(NC1Cc2ccccc21)c1ccc2nc(-c3ccccc3)cn2c1` (stereo not drawn) [Compound 80], inhibition was half-maximal at 3.03 µM (IC50).
On the same count and under the same terms, to `CN(C(=O)c1ccc2nc(-c3ccccc3)cn2c1)C1CCC1` [Compound 81] belongs greater than 50 µM.
Same read-out and setting: in the case of `N#CC1(NC(=O)c2ccc3nc(-c4ccccc4)cn3c2)CCC1` [Compound 82] it was greater than 50 µM.
Same read-out and setting: to `O=C(NC1(c2ccccc2)CCC1)c1ccc2nc(-c3ccccc3)cn2c1` [Compound 83] belongs greater than 50 µM.
Compound `O=C(NC1C2CC1C2)c1ccc2nc(-c3ccccc3)cn2c1` (stereo not drawn) [Compound 84] had an IC50 greater than 50 µM.
Still for that read-out and setting: to `O=C(N[C@@H]1CC[C@H]1O)c1ccc2nc(-c3ccccc3)cn2c1` [Compound 124] belongs 21 µM; to `CO[C@@H]1CC[C@H]1NC(=O)c1ccc2nc(-c3ccccc3)cn2c1` [Compound 126], 61 µM.
`COC[C@@H]1CC[C@@H]1NC(=O)c1ccc2nc(-c3ccccc3)cn2c1` [Compound 127] registered a concentration for half-maximal inhibition (IC50) of 58 µM.

The same assay, now with this note: ENL (YEATS)-H3K27cr HTRF (IC50, μM), Table 2.
Compound `CC(C)NC(=O)c1ccc2nc(-c3cccc(NS(=O)(=O)NCCc4c[nH]cn4)c3)cn2c1` [Compound 46] displayed an IC50 of 0.12 µM.
In the case of `O=C(NC1(CO)CCC1)c1ccc2nc(-c3ccccc3)cn2c1` [Compound 72], the half-maximal inhibitory concentration (IC50) was greater than 50 µM.
Still for that read-out and setting: to `CC1(NC(=O)c2ccc3nc(-c4ccccc4)cn3c2)CCC1` [Compound 73] belongs greater than 50 µM; to `O=C(NC1CC(F)(F)C1)c1ccc2nc(-c3ccccc3)cn2c1` [Compound 75], greater than 50 µM; to `O=C(NC1Cc2ccccc2C1)c1ccc2nc(-c3ccccc3)cn2c1` [Compound 77], greater than 50 µM.
Still for that read-out and setting: in the case of `O=C(N[C@H]1CCc2ccccc21)c1ccc2nc(-c3ccccc3)cn2c1` [Compound 79] it was greater than 50 µM.
Same read-out and setting: to `O=C(NC1Cc2ccccc21)c1ccc2nc(-c3ccccc3)cn2c1` (stereo not drawn) [Compound 80] belongs 3.03 µM.
Take `CN(C(=O)c1ccc2nc(-c3ccccc3)cn2c1)C1CCC1` [Compound 81]: the half-maximal inhibitory concentration (IC50) was greater than 50 µM.
The same measure, in the same setting: to `N#CC1(NC(=O)c2ccc3nc(-c4ccccc4)cn3c2)CCC1` [Compound 82] belongs greater than 50 µM.
The same measure, in the same setting: to `O=C(NC1(c2ccccc2)CCC1)c1ccc2nc(-c3ccccc3)cn2c1` [Compound 83] belongs greater than 50 µM; to `O=C(NC1C2CC1C2)c1ccc2nc(-c3ccccc3)cn2c1` (stereo not drawn) [Compound 84], greater than 50 µM.
Same read-out and setting: to `O=C(N[C@@H]1CC[C@H]1O)c1ccc2nc(-c3ccccc3)cn2c1` [Compound 124] belongs 21 µM; to `CO[C@@H]1CC[C@H]1NC(=O)c1ccc2nc(-c3ccccc3)cn2c1` [Compound 126], 61 µM; to `COC[C@@H]1CC[C@@H]1NC(=O)c1ccc2nc(-c3ccccc3)cn2c1` [Compound 127], 58 µM.

For another assay, the target named is T3, ENL(YEATS)-HiBiT (Homo sapiens, UniProt Q03111).
T3 sequence (Q03111 1-138 limits assumed): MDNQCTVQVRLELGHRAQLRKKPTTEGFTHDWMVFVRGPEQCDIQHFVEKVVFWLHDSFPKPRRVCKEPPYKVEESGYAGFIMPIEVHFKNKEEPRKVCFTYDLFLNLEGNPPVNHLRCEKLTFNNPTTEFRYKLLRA
Experiment: not given
The following applies: read-out: ENL YEATS CETSA (IC50); Table 2; OCI/AML-2 cells expressing ENL(YEATS)-HiBiT.
With `O=C(NC1(CO)CCC1)c1ccc2nc(-c3ccccc3)cn2c1` [Compound 72], the IC50 was greater than 50 µM.
For the compound `CC1(NC(=O)c2ccc3nc(-c4ccccc4)cn3c2)CCC1` [Compound 73], the IC50 is greater than 50 µM.
The same measure, in the same setting: in the case of `O=C(NC1CC(F)(F)C1)c1ccc2nc(-c3ccccc3)cn2c1` [Compound 75] it was greater than 50 µM.
With `O=C(NC1Cc2ccccc2C1)c1ccc2nc(-c3ccccc3)cn2c1` [Compound 77], the IC50 was greater than 50 µM.
Still for that read-out and setting: in the case of `O=C(N[C@H]1CCc2ccccc21)c1ccc2nc(-c3ccccc3)cn2c1` [Compound 79] it was greater than 50 µM; in that of `O=C(NC1Cc2ccccc21)c1ccc2nc(-c3ccccc3)cn2c1` (stereo not drawn) [Compound 80], greater than 50 µM.
On the same count and under the same terms, in the case of `CN(C(=O)c1ccc2nc(-c3ccccc3)cn2c1)C1CCC1` [Compound 81] it was greater than 50 µM; in that of `N#CC1(NC(=O)c2ccc3nc(-c4ccccc4)cn3c2)CCC1` [Compound 82], greater than 50 µM.
Consider `O=C(NC1(c2ccccc2)CCC1)c1ccc2nc(-c3ccccc3)cn2c1` [Compound 83], for which the IC50 is greater than 50 µM.
On the same count and under the same terms, in the case of `O=C(NC1C2CC1C2)c1ccc2nc(-c3ccccc3)cn2c1` (stereo not drawn) [Compound 84] it was greater than 50 µM.

The target in a further assay is T3, ENL(YEATS)-HiBiT. The assay can be described thus: cell-based.
Details: not given
In turn, `CC(C)NC(=O)c1ccc2nc(-c3cccc(NS(=O)(=O)NCCc4c[nH]cn4)c3)cn2c1` [Compound 46] displayed a half-inhibitory concentration (IC50) of 8.5 µM.
The same measure, in the same setting: in the case of `O=C(NC1(CO)CCC1)c1ccc2nc(-c3ccccc3)cn2c1` [Compound 72] it was greater than 50 µM; in that of `CC1(NC(=O)c2ccc3nc(-c4ccccc4)cn3c2)CCC1` [Compound 73], greater than 50 µM; in that of `O=C(NC1CC(F)(F)C1)c1ccc2nc(-c3ccccc3)cn2c1` [Compound 75], greater than 50 µM.
In the case of `O=C(NC1Cc2ccccc2C1)c1ccc2nc(-c3ccccc3)cn2c1` [Compound 77], the IC50 was greater than 50 µM.
Take `O=C(N[C@H]1CCc2ccccc21)c1ccc2nc(-c3ccccc3)cn2c1` [Compound 79]: the IC50 was greater than 50 µM.
Same read-out and setting: to `O=C(NC1Cc2ccccc21)c1ccc2nc(-c3ccccc3)cn2c1` (stereo not drawn) [Compound 80] belongs greater than 50 µM; to `CN(C(=O)c1ccc2nc(-c3ccccc3)cn2c1)C1CCC1` [Compound 81], greater than 50 µM; to `N#CC1(NC(=O)c2ccc3nc(-c4ccccc4)cn3c2)CCC1` [Compound 82], greater than 50 µM.
On the same count and under the same terms, to `O=C(NC1(c2ccccc2)CCC1)c1ccc2nc(-c3ccccc3)cn2c1` [Compound 83] belongs greater than 50 µM; to `O=C(NC1C2CC1C2)c1ccc2nc(-c3ccccc3)cn2c1` (stereo not drawn) [Compound 84], greater than 50 µM.
Same read-out and setting: in the case of `O=C(N[C@@H]1CC[C@H]1O)c1ccc2nc(-c3ccccc3)cn2c1` [Compound 124] it was 56 µM; in that of `CO[C@@H]1CC[C@H]1NC(=O)c1ccc2nc(-c3ccccc3)cn2c1` [Compound 126], 22 µM.
`COC[C@@H]1CC[C@@H]1NC(=O)c1ccc2nc(-c3ccccc3)cn2c1` [Compound 127] came in with an IC50 of 32 µM.

Broadly, the IC50 is the concentration that gives 50% inhibition.

For the origin of these results see patent US20220274980A1, “PHARMACOLOGICAL INHIBITORS OF THE ENL YEATS DOMAIN” (priority 2019, published 2022).
